Assays:
Format in all cases: cell-based
[1] = target: T1, interaction between the KRS protein and the laminin receptor (LR) (Homo sapiens, UniProt Q15046); assay: Yeast Two Hybrid inhibition of the interaction between the KRS protein and the laminin receptor (LR); conditions: 1 μL of 20 mM DMSO solution per 200 μL culture; 30° C., 6 days; absorbance 540 nm; non-treated control = 100%
T1 construct: expressed in transfected cells; host or cells: yeast EGY/SH cells
Description: The inhibitory activity against the interaction between the KRS protein and the laminin receptor (LR) was evaluated according to the Yeast Two Hybrid method described in WO2011/056021. According to the disclosures of WO2011/056021, we prepared a vector obtained by cloning the KRS gene in the LexA vector (Clontech) and a vector obtained by cloning the LR gene in the B42 vector (Clontech). The yeast cells, i.e., EGY/SH cells were co-transformed with the LexA-KRS vector and the B42-LR vector. The co-transformation was carried out using the Yeastmaker yeast transformation system2 kit (Clontech), according to the manufacturer's instruction. […] The cultured yeast cells were diluted with the said galactose medium, until the absorbance at 540 nm attains to about 0.15 to 0.2. The diluted culture (200 μL), containing the yeast cells, was added to each well of a 96-well plate. Each test compound was dissolved in dimethyl sulfoxide at a concentration of 20 mM and then the resulting solutions (1 μL) were added to each well. The plate was cultured at 30° C. for 6 days and then the absorbance of the each well was measured at 540 nm.
(§1) And also, specificity of the inhibitory activity was evaluated, using the yeast cells cotransformed with the LexA-KRS vector and the B42-AIMP2 vector; and the yeast cells co-transformed with the LexA-KRS vector and the B42-AIMP3 vector, which were respectively prepared according to WO2011/056021. The co-transformation was carried out using the Yeastmaker yeast transformation system2 kit (Clontech), according to the manufacturer's instruction. […] The cultured yeast cells were diluted with the said galactose medium, until the absorbance at 540 nm attains to about 0.15 to 0.2. The diluted culture (200 μL), containing the yeast cells, was added to each well of a 96-well plate. Each test compound was dissolved in dimethyl sulfoxide at a concentration of 20 mM and then the resulting solutions (1 μL) were added to each well. The plate was cultured at 30° C. for 6 days and then the absorbance of each well was measured at 540 nm. The respective yeast cell proliferation rates (%) in the treated samples were calculated in comparison with those of the non-treated control (100%) and the results thereof are shown in Table 1 below.
When KRS is bound to LR, the trans-activation domain is come close to the DNA-binding domain and the genes for synthesizing essential amino acids are expressed, which leads to normal growth of the transformed yeasts, thereby increasing the absorbance.

[2] = target: T2, binding between KRS and AIMP2 (Homo sapiens, UniProt Q15046); assay: Yeast Two Hybrid specificity test, LexA-KRS / B42-AIMP2 co-transformed yeast cells; conditions: 1 μL of 20 mM DMSO solution per 200 μL culture; 30° C., 6 days; absorbance 540 nm; non-treated control = 100%
T2 construct: expressed in transfected cells; host or cells: yeast cells (co-transformed)
Description: as §1

[3] = target: T3, binding between KRS and AIMP3 (Homo sapiens, UniProt Q15046); assay: Yeast Two Hybrid specificity test, LexA-KRS / B42-AIMP3 co-transformed yeast cells; conditions: 1 μL of 20 mM DMSO solution per 200 μL culture; 30° C., 6 days; absorbance 540 nm; non-treated control = 100%
T3 construct: expressed in transfected cells; host or cells: yeast cells (co-transformed)
Description: as §1

[4] = system: A549 cells; assay: Cell Migration Assay (transwell, laminin); conditions: Homo sapiens, laminin 10 μg/mL in lower well, test compounds 0.39˜100 μM, 6 hours at 37° C.
Description: Cell migration was measured with a 24-well transwell having a polycarbonate membrane (8.0 μm pore size, Costar) at the bottom of the upper chamber. Each lower well was treated with laminin (10 μg/mL) and test compounds (0.39˜100 μM) along with a serum-free RPMI1640 medium. A549 cells (Korean Cell Line Bank) were suspended in a serum-free RPMI1640 medium at a concentration of 1×10^6 cells/mL and then the test compounds were added thereto at the indicated concentrations. Each resulting solution (100 μL) was added to the upper chamber. The cells were cultured at 37° C. for 6 hours in a CO2 incubator. The upper chamber was taken out and then the cells were fixed with PBS containing 70% methyl alcohol for 10 minutes, followed by washing with PBS twice. The cells were stained with hematoxylin (Sigma) for 10 minutes and then washed with distilled water. The non-migrated cells were removed from the upper portion of the polycarbonate membrane with a cotton swab. The membranes were excised and separated from the chamber, and then mounted to a slide using a gel mount reagent (Biomeda, USA). The migrated cells (attached to the lower face of the membrane) were counted at three randomly selected sites under a microscope (×20). The cell counting was performed with the Image J program. From the counted cell numbers, each IC50 value was calculated by non-linear regression curve fit using the “GraphPad Prism” program.
The cells are pulled by laminin residing in the lower chamber and then passed through the polycarbonate membrane, so as to attach to the lower face of the membrane.

T2 sequence (Q15046 whole entry): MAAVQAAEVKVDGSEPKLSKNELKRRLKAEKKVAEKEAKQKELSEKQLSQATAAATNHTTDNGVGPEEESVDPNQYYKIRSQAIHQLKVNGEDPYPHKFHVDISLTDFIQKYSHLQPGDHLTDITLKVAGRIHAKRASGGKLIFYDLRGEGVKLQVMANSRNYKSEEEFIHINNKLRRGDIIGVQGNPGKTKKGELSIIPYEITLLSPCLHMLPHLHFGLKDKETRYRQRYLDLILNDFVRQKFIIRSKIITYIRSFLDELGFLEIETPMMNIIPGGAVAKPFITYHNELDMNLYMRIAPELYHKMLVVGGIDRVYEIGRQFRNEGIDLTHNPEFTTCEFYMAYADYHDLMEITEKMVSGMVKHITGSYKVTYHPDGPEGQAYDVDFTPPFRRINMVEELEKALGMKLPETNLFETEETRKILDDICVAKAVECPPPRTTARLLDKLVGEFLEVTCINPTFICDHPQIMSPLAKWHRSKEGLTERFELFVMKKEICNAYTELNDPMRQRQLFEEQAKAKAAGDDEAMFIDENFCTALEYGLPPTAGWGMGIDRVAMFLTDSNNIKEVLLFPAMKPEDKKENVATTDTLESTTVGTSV
T3 sequence (Q15046 whole entry): as above
T1 sequence (Q15046 whole entry): as above

SMILES | Yeast cell proliferation rates KRS-LR (%) [1] | Yeast cell proliferation rates KRS-AIMP2 (%) [2] | Yeast cell proliferation rates KRS-AIMP3 (%) [3] | IC50 [4]
Cc1cccc2c1sc(=NC(=O)c1cccc(Cl)c1)n2C(C)C(=O)O (centres unmarked) [Example 353, 2-(2-((3-chlorobenzoyl)imino)-7-methylbenzo[d]thiazol-3(2H)-yl)propionic acid] | 28.2% | 89.4% | 99.5% | 
CC(C(=O)O)n1c(=NC(=O)c2cccc(C(F)(F)F)c2)sc2ccc(F)cc21 (centres unmarked) [Example 355, 2-(5-fluoro-2-((3-(trifluoromethyl)benzoyl)imino)benzo[d]thiazol-3(2H)-yl)propionic acid] | 22.1% | 97.2% | 104.4% | 
Cc1ccc(C(=O)N=c2sc3ccc(F)cc3n2C(C)C(=O)O)cc1 (centres unmarked) [Example 91, 2-[5-fluoro-2-(4-methylbenzoylimino)benzo[d]thiazol-3(2H)-yl]propionic acid] | 27.8% | 116.6% | 98.5% | 
CCC(C(=O)O)n1c(=NC(=O)c2ccc(OC)cc2)sc2c(F)c(F)ccc21 (centres unmarked) [Example 585] | 46.3% | 95.8% | 84.0% | 
CCC(C(=O)O)n1c(=NC(=O)c2ccc(OC)cc2)sc2cc(OC(F)(F)F)ccc21 (centres unmarked) [Example 507] | 45.9% | 99.3% | 99.0% | 
CCC(C(=O)O)n1c(=NC(=O)c2ccc(C)cc2)sc2c(C)cccc21 (centres unmarked) [Example 344, 2-(7-methyl-2-((4-methylbenzoyl)imino)benzo[d]thiazol-3(2H)-yl)butanoic acid] | 11.7% | 99.0% | 102.8% | 
CC(C(=O)O)n1c(=NC(=O)c2cccc(C(F)(F)F)c2)sc2ccc(Cl)cc21 (centres unmarked) [Example 359, 2-(5-chloro-2-((3-(trifluoromethyl)benzoyl)imino)benzo[d]thiazol-3(2H)-yl)propionic acid] | 21.9% | 101.6% | 107.0% | 
CCOc1ccc2c(c1)sc(=NC(=O)c1ccc(F)cc1)n2C(CC)C(=O)O (centres unmarked) [Example 476, 2-(6-ethoxy-2-((4-fluorobenzoyl)imino)benzo[d]thiazol-3(2H)-yl)butanoic acid] | 29.6% | 91.0% | 86.1% | 
CCC(C(=O)O)n1c(=NC(=O)c2cccc(OC)c2)sc2c(F)cccc21 (centres unmarked) [Example 532] | 43.7% | 98.6% | 97.3% | 
CCC(C(=O)O)n1c(=NC(=O)c2cccc(Cl)c2)sc2c(C)cccc21 (centres unmarked) [Example 354, 2-(2-((3-chlorobenzoyl)imino)-7-methylbenzo[d]thiazol-3(2H)-yl)butanoic acid] | 30.2% | 103.0% | 106.4% | 
CCC(C(=O)O)n1c(=NC(=O)c2ccc(C)cc2)sc2cccc(OC)c21 (centres unmarked) [Example 8, 2-{4-methoxy-2-[(4-methylbenzoyl)imino]benzo[d]thiazol-3(2H)-yl}butanoic acid] | 17.4% | 84.6% | 84.1% | 
CC(C(=O)O)n1c(=NC(=O)c2cccc(Cl)c2)sc2c(F)c(F)ccc21 (centres unmarked) [Example 337, 2-(2-((3-chlorobenzoyl)imino)-6,7-difluorobenzo[d]thiazol-3(2H)-yl)propionic acid] | 12.3% | 92.5% | 100.3% | 
CCC(C(=O)O)n1c(=NC(=O)c2ccc(OC)cc2)sc2c(F)cccc21 (centres unmarked) [Example 533] | 39.0% | 94.8% | 98.3% | 
CCOc1ccc2c(c1)sc(=NC(=O)c1ccc(C)cc1)n2C(CC)C(=O)O (centres unmarked) [Example 7, 2-{6-ethoxy-2-[(4-methylbenzoyl)imino]benzo[d]thiazol-3(2H)-yl}butanoic acid] | 36.9% | 106.4% | 100.1% | 

Further lines, results first:

Yeast cell proliferation rates KRS-LR (%) [1] | Yeast cell proliferation rates KRS-AIMP2 (%) [2] | Yeast cell proliferation rates KRS-AIMP3 (%) [3] | IC50 [4] | SMILES
49.3% | 99.0% | 93.0% |  | CCC(C(=O)O)n1c(=NC(=O)c2cccc(F)c2)sc2c(F)c(F)ccc21 (centres unmarked) [Example 582, 2-(6,7-difluoro-2-((3-fluorobenzoyl)imino)benzo[d]thiazol-3(2H)-yl)butanoic acid]
36.1% | 97.1% | 90.3% |  | CCC(C(=O)O)n1c(=NC(=O)c2cccc(F)c2)sc2c(Cl)cccc21 (centres unmarked) [Example 543, 2-(7-chloro-2-((3-fluorobenzoyl)imino)benzo[d]thiazol-3(2H)-yl)butanoic acid]
24.7% | 99.6% | 99.3% |  | CC(C(=O)O)n1c(=NC(=O)c2cccc(Cl)c2)sc2c(F)c(F)c(F)cc21 (centres unmarked) [Example 416, 2-(2-((3-chlorobenzoyl)imino)-5,6,7-trifluorobenzo[d]thiazol-3(2H)-yl)propionic acid]
10.8% | 101.6% | 105.3% |  | CCC(C(=O)O)n1c(=NC(=O)c2ccc(C)cc2)sc2c(F)c(F)ccc21 (centres unmarked) [Example 335, 2-(6,7-difluoro-2-((4-methylbenzoyl)imino)benzo[d]thiazol-3(2H)-yl)butanoic acid]
34.3% | 96.7% | 93.2% |  | CC(C(=O)O)n1c(=NC(=O)c2ccc(F)c(F)c2)sc2cc(F)c(F)cc21 (centres unmarked) [Example 463, 2-(2-((3,4-difluorobenzoyl)imino)-5,6-difluorobenzo[d]thiazol-3(2H)-yl)propionic acid]
 |  |  | 19 µM | CCC(C(=O)O)n1c(=NC(=O)c2ccc(F)c(Cl)c2)sc2cc(F)c(F)cc21 (centres unmarked) [Example 467, 2-(2-((3-chloro-4-fluorobenzoyl)imino)-5,6-difluorobenzo[d]thiazol-3(2H)-yl)butanoic acid]
34.1% | 99.0% | 114.8% |  | CCC(C(=O)O)n1c(=NC(=O)c2ccc(C)cc2)sc2cc3c(cc21)OCO3 (centres unmarked) [Example 237, 2-(6-((4-methylbenzoyl)imino)-[1,3]dioxolo[4′,5′:4,5]benzo[1,2-d]thiazol-7(6H)-yl)butanoic acid]
 |  |  | 19 µM | CCC(C(=O)O)n1c(=NC(=O)c2ccc(C)cc2)sc2ccc(Cl)cc21 (centres unmarked) [Example 105, 2-[5-chloro-2-(4-methylbenzoylimino)benzo[d]thiazol-3(2H)-yl]butanoic acid]
